Measured values from patent US20240294551A1 (AMGEN INC., priority 2022, published 2024).
Where two headings read alike, the source gives them in different places.

How the values were obtained:
[1] = biological target: His-tagged KRAS G12D protein (Homo sapiens (Human), UniProt P01116, G12D); test: KRAS G12D TR-FRET Assay; type: binding
Summary of the method: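 His-tagged KRAS G12D (diluted to 20 nM in pH 7.4 HEPES buffer with 10 mM MgCl2 and 10 μM GDP) was preincubated with titrated compound for 30 min at room temperature. Biotinylated KRPep-2d peptide (diluted to 20 nM) was then added for 1 h, and displacement was monitored by TR-FRET.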

[2] = biological target: GDP-bound KRAS protein (aa 1-169), containing both G12D and C118A amino acid substitutions (Homo sapiens (Human), UniProt P01116, C118A/G12D); test: KRAS G12D Coupled Nucleotide Exchange Assay; type: biochemical
[3] = tested on: Phosphorylation of ERK1/2 in AsPC-1 cells; test: Phospho-ERK1/2 MSD Assay; type: cell-based, human
Summary of the method: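 Read-out: MSD electrochemiluminescent detection of phosphorylated ERK1/2 in whole-cell lysates, fitted to a 4-parameter logistic curve for IC50. Prior to lysis, AsPC-1 cells (25,000 per well) received a 2 h compound dose-response at 37 °C.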

MIA PaCa-2 cells = test: MIA PaCa-2 CTG Assay (CellTiter-Glo cell viability); type: cell-based, human; settings: Homo sapiens, second value of the cell
Description: MIA PaCa-2 CTG Assay Protocol
MIA PaCa-2 (human pancreatic carcinoma; ATCC CRL-1420) cells were cultured in RPMI 1640 medium containing 10% fetal bovine serum and 1× penicillin/streptomycin/L-glutamine. Cells were seeded in 384-well plates at a density of 1.67E+04 cells/mL and incubated at 37° C., 5% CO2, overnight. Serially-diluted compound or DMSO was added to the cells, and plates were incubated at 37° C., 5% CO2 for 72 h. Cell viability was measured using a CellTiter-Glo® Luminescent Cell Viability Assay kit (Promega) according to the manufacturer's protocol. The luminescence signal of treated samples was normalized to DMSO control, and data were analyzed using a 4-parameter logistic model to calculate IC50 values.

AsPC-1 cells = test: AsPC-1 CTG Assay (CellTiter-Glo cell viability); type: cell-based, human; settings: first value of the cell, read-out: G12D/C/V Cell Proliferation CTG (72 h) AsPC-1
Summary of the method: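 Human pancreatic AsPC-1 or colon SW620 cells in RPMI 1640 with 10% FBS, seeded overnight, then exposed to serially diluted compound for 72 h at 37 °C. CellTiter-Glo luminescence normalized to DMSO control; IC50 from a 4-parameter logistic model.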

[4] = read-out: KRAS G12D Binding IC50
[5] = read-out: KRAS G12D Coupled Exchange IC50
[6] = Homo sapiens, ASPC1, 2 h, read-out: 2 h p-ERK (AsPC-1 cells), IC50
[7] = Mia PaCa-2, 72 h, read-out: G12D/C/V Cell Proliferation CTG (72 h) Mia PaCa-2
[8] = Homo sapiens, ASPC1, 2 h, read-out: 2 h p-ERK (AsPC-1 cells)
[9] = Homo sapiens, ASPC1, 72 h, AsPC-1, 72 h
[10] = 2 h, read-out: 2 h p-ERK (AsPC-1 cells), IC50

His-tagged KRAS G12D protein, sequence (P01116 other isoform, or with tags, fused parts or gaps G12D): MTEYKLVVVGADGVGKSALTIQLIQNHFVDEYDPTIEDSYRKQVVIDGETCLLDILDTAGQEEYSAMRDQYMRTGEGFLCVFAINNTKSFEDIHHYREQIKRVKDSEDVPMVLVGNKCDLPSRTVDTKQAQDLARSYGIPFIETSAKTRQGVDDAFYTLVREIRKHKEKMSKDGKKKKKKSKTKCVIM
GDP-bound KRAS protein (aa 1-169), containing both G12D and C118A amino acid substitutions, sequence (P01116 other isoform, or with tags, fused parts or gaps G12D/C118A): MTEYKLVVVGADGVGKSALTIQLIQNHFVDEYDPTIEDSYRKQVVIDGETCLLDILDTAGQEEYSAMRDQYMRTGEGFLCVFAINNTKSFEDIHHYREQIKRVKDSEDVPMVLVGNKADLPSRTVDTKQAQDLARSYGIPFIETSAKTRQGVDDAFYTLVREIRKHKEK

C[C@@]12COCCN(C1)c1nc(OC[C@@]34CCCN3C[C@H](F)C4)nc3c(F)c(ncc13)-c1cccc3ccc(F)c(c13)CCOC(=O)O2 [Example 304, (16S)-23,32-difluoro-8-(((2R,7aS)-2-fluorotetrahydro-1H-pyrrolo[1,2-a]pyrrol-7a(5H)-yl)methoxy)-16-methyl-14,17,19-trioxa-3,7,9,11-tetraazahexacyclo[20.7.1.1~2,6~.1~11,16~.0~5,10~.0~26,30~]dotriaconta-1(30),2(32),3,5,7,9,22,24,26,28-decaen-18-one]
IC50 [1, 4]: 15 nM
IC50 [2, 5]: 4 nM
IC50 [3, 6]: 103 nM
IC50 (MIA PaCa-2 cells; [7]): 380 nM

C[C@@]12COCCN(C1)c1nc(OC[C@@]34CCCN3C[C@H](F)C4)nc3c(F)c(ncc13)-c1cccc(Cl)c1CCCOC(=O)O2 [Example 200, (23S)-15-chloro-29-fluoro-4-(((2R,7aS)-2-fluorotetrahydro-1H-pyrrolo[1,2-a]pyrrol-7a(5H)-yl)methoxy)-23-methyl-20,22,25-trioxa-1,3,5,9-tetraazapentacyclo[21.4.1.1~6,10~.0~2,7~.0~11,16~]nonacosa-2,4,6,8,10(29),11,13,15-octaen-21-one]
IC50 [1, 4]: 10 nM
IC50 [2, 5]: 4 nM
IC50 [3, 6]: 262 nM
IC50 (MIA PaCa-2 cells; [7]): 320 nM

Fc1c2ncc3c(nc(OC[C@@]45CCCN4C[C@H](F)C5)nc13)N1CCOC[C@H](C1)c1noc(n1)CCCc1c(Cl)cc3[nH]ncc3c1-2 [Example 381]
IC50 [3, 8]: 10.4 nM
IC50 (MIA PaCa-2 cells; MIA PaCa-2 cells (G12C), 72 h, read-out: G12D/C/V Cell Proliferation CTG (72 h) MIA PaCa-2): 12 nM

O=C1CCCCc2c(Cl)cc3[nH]ncc3c2-c2ncc3c(nc(OC[C@@]45CCCN4C[C@H](F)C5)nc3c2F)N2CC[C@@H]3[C@H](C2)N1CC3(F)F [Example 403, (28R,32R)-18-chloro-27,27,33-trifluoro-4-(((2R,7aS)-2-fluorotetrahydro-1H-pyrrolo[1,2-a]pyrrol-7a(5H)-yl)methoxy)-1,3,5,9,14,15,25-heptaazaheptacyclo[23.5.2.1~6,10~.0~2,7~.0~11,19~.0~12,16~.0~28,32~]tritriaconta-2,4,6,8,10(33),11,13,16,18-nonaen-24-one]
IC50 ([1]; TR-FRET, read-out: KRAS G12D Binding): 3 nM
IC50 ([2]; 2 hours compound pre-incubation, read-out: KRAS G12D Coupled Exchange): 2 nM
IC50 [3, 8]: 180 nM
IC50 (AsPC-1 cells; Homo sapiens, ASPC1, 72 h, AsPC-1 cells (G12D), 72 h): 639 nM

Cc1cc2[nH]ncc2c2c1C[C@@H](C)CCOC[C@@H]1CCCN(C1)c1nc(OC[C@@]34CCCN3C[C@H](F)C4)nc3c(F)c-2ncc13 [Example 250, (12R,17R)-30-fluoro-24-(((2R,7aS)-2-fluorotetrahydro-1H-pyrrolo[1,2-a]pyrrol-7a(5H)-yl)methoxy)-9,12-dimethyl-15-oxa-5,6,21,23,25,29-hexaazahexacyclo[24.3.1.1~17,21~.0~2,10~.0~3,7~.0~22,27~]hentriaconta-1(30),2,4,7,9,22,24,26,28-nonaene]
IC50 [1, 4]: 13 nM
IC50 [2, 5]: 6 nM
IC50 [3, 6]: 128 nM
IC50 (AsPC-1 cells; [9]): 1060 nM

Fc1c2ncc3c(nc(OC[C@@]45CCCN4C[C@H](F)C5)nc13)N1CCOC[C@H](COCCCCc3c(Cl)cc4[nH]ncc4c3-2)C1 (single isomer, unassigned) [Example 136]
IC50 [1, 4]: 7 nM
IC50 [2, 5]: 3 nM
IC50 [3, 6]: 77 nM
IC50 (AsPC-1 cells; [9]): 670 nM

O=C1OCCCc2c(Cl)cc3[nH]ncc3c2-c2ncc3c(nc(OC[C@@]45CCCN4C[C@H](F)C5)nc3c2F)N2CCC[C@]3(C2)C[C@H](C3)O1 [Example 323, (1R,3S)-11-chloro-33-fluoro-25-(((2R,7aS)-2-fluorotetrahydro-1H-pyrrolo[1,2-a]pyrrol-7a(5H)-yl)methoxy)-4,6-dioxa-14,15,20,24,26,28-hexaazaheptacyclo[26.3.1.1~1,3~.1~19,23~.0~10,18~.0~13,17~.0~22,27~]tetratriaconta-10,12,15,17,19(33),20,22,24,26-nonaen-5-one]
IC50 [1, 4]: 5 nM
IC50 [2, 5]: 2 nM
IC50 [3, 10]: 30.5 nM
IC50 (AsPC-1 cells; AsPC-1, 72 h): 318 nM

C[C@@]12CCCN(C1)c1nc(OC[C@@]34CCCN3C[C@H](F)C4)nc3c(F)c(ncc13)-c1cccc3ccc(F)c(c13)CCOC(=O)N2 [Example 77, (15R)-22,31-difluoro-8-(((2R,7aS)-2-fluorotetrahydro-1H-pyrrolo[1,2-a]pyrrol-7a(5H)-yl)methoxy)-15-methyl-18-oxa-3,7,9,11,16-pentaazahexacyclo[19.7.1.1~2,6~.1~11,15~.0~5,10~.0~25,29~]hentriaconta-1(29),2(31),3,5,7,9,21,23,25,27-decaen-17-one]
IC50 [1, 4]: 14 nM
IC50 [2, 5]: 7 nM
IC50 [3, 6]: 745 nM
IC50 (AsPC-1 cells; [9]): 2140 nM

C[C@@]12CCCN(C1)c1nc(OC[C@@]34CCCN3C[C@H](F)C4)nc3c(F)c(ncc13)-c1cccc3ccc(F)c(c13)CCC(F)C(=O)N2 (mixture of isomers) [Example 11]
IC50 [1, 4]: 12 nM
IC50 [2, 5]: 8 nM
IC50 [3, 6]: 155 nM
IC50 (AsPC-1 cells; [9]): 1050 nM

O=C1CCCCc2c(Cl)cc3[nH]ncc3c2-c2ncc3c(nc(OC[C@@]45CCCN4C[C@H](F)C5)nc3c2F)N2CCOCC(C1)C2 (mixture of isomers) [Example 230]
IC50 [1, 4]: 12 nM
IC50 [2, 5]: 9 nM
IC50 [3, 6]: 95.1 nM
IC50 (AsPC-1 cells; [9]): 174 nM

O=C1CCCCc2c(Cl)cc3[nH]ncc3c2-c2ncc3c(nc(OC[C@@]45CCCN4C[C@H](F)C5)nc3c2F)N2CCC3CN1[C@H]3C2 (mixture of isomers) [Example 164]
IC50 [1, 4]: 10 nM
IC50 [2, 5]: 7 nM
IC50 [3, 6]: 236 nM
IC50 (AsPC-1 cells; [9]): 3100 nM

Cc1cc2[nH]ncc2c2c1CCC[C@@H](O)CC[C@@H]1CCCN(C1)c1nc(OC[C@@]34CCCN3C[C@H](F)C4)nc3c(F)c-2ncc13 [Example 237, (14R,17S)-30-Fluoro-24-(((2R,7aS)-2-fluorotetrahydro-1H-pyrrolo[1,2-a]pyrrol-7a(5H)-yl)methoxy)-9-methyl-5,6,21,23,25,29-hexaazahexacyclo[24.3.1.1˜17,21˜.0˜2,10˜.0˜3,7˜.0˜22,27˜]hentriaconta-1(30),2,4,7,9,22,24,26,28-nonaen-14-ol]
IC50 [1, 4]: 19 nM
IC50 [2, 5]: 10 nM
IC50 [3, 6]: 279 nM
IC50 (AsPC-1 cells; [9]): 5000 nM

CO[C@@H]1C[C@@H](COc2nc3c4cnc(c(F)c4n2)-c2c(c(Cl)cc4[nH]ncc24)CCCOC(=O)O[C@]2(C)COCCN3C2)N(C)C1 [Example 319, (26S)-18-chloro-32-fluoro-4-(((2S,4R)-4-methoxy-1-methyl-2-pyrrolidinyl)methoxy)-26-methyl-23,25,28-trioxa-1,3,5,9,14,15-hexaazahexacyclo[24.4.1.1~6,10~.0~2,7~.0~11,19~.0~12,16~]dotriaconta-2,4,6,8,10(32),11,13,16,18-nonaen-24-one]
IC50 [1, 4]: 6 nM
IC50 [2, 5]: 3 nM
IC50 [3, 6]: 26.7 nM
IC50 (AsPC-1 cells; [9]): 134 nM

Cc1c2ncc3c(nc(OC[C@@]45CCCN4C[C@H](F)C5)nc13)N1CCOC[C@H](C1)OC(=O)OCCCc1c(Cl)cc3[nH]ncc3c1-2 (atropisomer, axis not shown) [Example 342, (26S)-18-chloro-4-(((2R,7aS)-2-fluorotetrahydro-1H-pyrrolo[1,2-a]pyrrol-7a(5H)-yl)methoxy)-32-methyl-23,25,28-trioxa-1,3,5,9,14,15-hexaazahexacyclo[24.4.1.1~6,10~.0~2,7~.0~11,19~.0~12,16~]dotriaconta-2,4,6,8,10(32),11,13,16,18-nonaen-24-one]
IC50 [1, 4]: 47 nM
IC50 [2, 5]: 23 nM
IC50 [3, 10]: 332 nM
IC50 (AsPC-1 cells; AsPC-1, 72 h): 3060 nM
